The structures appear in SMILES notation.

The first data set has as its system Hepatotoxicity. Kind of data set: FDA HLAED, liver enzyme composite activity. The note with it: human.
In the case of `CC(=O)O.C[C@H]1C[C@@H]2[C@H]([C@@H](O)C[C@@]3(C)[C@H]2CC[C@]3(O)C(=O)CO)[C@@]2(C)C=CC(=O)C=C12`, the “Composite Activity - Active” value is recorded as 0 and the “Composite Activity - Marginal” value came out at 0.

As to `FC(F)OC(F)(F)C(F)Cl` (stereo unspecified), the “Composite Activity - Active” value is 0 and the “Composite Activity - Marginal” value came out at 0.

With `N[C@@H](Cc1ccc(N(CCCl)CCCl)cc1)C(=O)O`, the “Composite Activity - Active” value is reported as 0 and the “Composite Activity - Marginal” value was 0.

As to `NC12CC3CC(CC(C3)C1)C2` [AMANTADINE], the “Composite Activity - Active” value was found to be 0 and the “Composite Activity - Marginal” value was 0.

Regarding `NCCCCCC(=O)O` [AMINOCAPROIC ACID], the “Composite Activity - Active” value worked out at 0 and the “Composite Activity - Marginal” value stood at 0.

In the case of `CN(C)CCC=C1c2ccccc2CCc2ccccc21` [AMITRIPTYLINE], the “Composite Activity - Active” value came to 0 and the “Composite Activity - Marginal” value was 0.

As for `C[C@@H]1[C@H](O)[C@@H](C)/C=C/C=C/C=C/C=C/C=C/C=C/C=C/[C@H](O[C@@H]2O[C@H](C)[C@@H](O)[C@H](N)[C@@H]2O)C[C@@H]2O[C@](O)(C[C@@H](O)C[C@@H](O)[C@H](O)CC[C@@H](O)C[C@@H](O)CC(=O)O[C@H]1C)C[C@H](O)[C@H]2C(=O)O` [AMPHOTERICIN B], the “Composite Activity - Active” value came out at 0 and the “Composite Activity - Marginal” value is reported as 0.

Consider `CC(=O)Oc1ccccc1C(=O)O` [ASPIRIN], for which the “Composite Activity - Active” value is given as 0 and the “Composite Activity - Marginal” value is recorded as 0.

Take `CN1[C@@H]2CC[C@H]1C[C@@H](OC(c1ccccc1)c1ccccc1)C2` [BENZTROPINE]: the “Composite Activity - Active” value is recorded as 0 and the “Composite Activity - Marginal” value was 0.

Regarding `CC(=O)OCC(=O)[C@@]1(O)[C@@H](C)C[C@H]2[C@@H]3CCC4=CC(=O)C=C[C@]4(C)[C@@]3(F)[C@@H](O)C[C@@]21C` [BETAMETHASONE ACETATE], the “Composite Activity - Active” value is recorded as 0 and the “Composite Activity - Marginal” value is listed as 0.

Take `CC(=O)OCC(=O)[C@@]1(OC(=O)C(C)C)[C@@H](C)C[C@H]2[C@@H]3CCC4=CC(=O)C=C[C@]4(C)[C@@]3(F)[C@@H](O)C[C@@]21C` [BETAMETHASONE ACIBUTATE]: the “Composite Activity - Active” value turned out to be 0 and the “Composite Activity - Marginal” value is listed as 0.

Regarding `C[C@H]1C[C@H]2[C@@H]3CCC4=CC(=O)C=C[C@]4(C)[C@@]3(F)[C@@H](O)C[C@]2(C)[C@@]1(OC(=O)c1ccccc1)C(=O)CO` [BETAMETHASONE BENZOATE], the “Composite Activity - Active” value was 0 and the “Composite Activity - Marginal” value worked out at 0.

With `CCCC(=O)O[C@]1(C(=O)COC(=O)CC)[C@@H](C)C[C@H]2[C@@H]3CCC4=CC(=O)C=C[C@]4(C)[C@@]3(F)[C@@H](O)C[C@@]21C` [BETAMETHASONE BUTYRATE PROPIONATE], the “Composite Activity - Active” value amounted to 0 and the “Composite Activity - Marginal” value came out at 0.

For the compound `CCC(=O)OCC(=O)[C@@]1(OC(=O)CC)[C@@H](C)C[C@H]2[C@@H]3CCC4=CC(=O)C=C[C@]4(C)[C@@]3(F)[C@@H](O)C[C@@]21C` [BETAMETHASONE DIPROPIONATE], the “Composite Activity - Active” value came out at 0 and the “Composite Activity - Marginal” value is on record as 0.

As for `CCCCC(=O)O[C@]1(C(=O)CO)[C@@H](C)C[C@H]2[C@@H]3CCC4=CC(=O)C=C[C@]4(C)[C@@]3(F)[C@@H](O)C[C@@]21C` [BETAMETHASONE VALERATE], the “Composite Activity - Active” value is reported as 0 and the “Composite Activity - Marginal” value is 0.

Regarding `C[C@H]1C[C@H]2[C@@H]3CCC4=CC(=O)C=C[C@]4(C)[C@@]3(F)[C@@H](O)C[C@]2(C)[C@@]1(O)C(=O)CO` [BETAMETHASONE], the “Composite Activity - Active” value was determined as 0 and the “Composite Activity - Marginal” value is 0.

On to `CS(=O)(=O)OCCCCOS(C)(=O)=O` [BUSULFAN], for which the “Composite Activity - Active” value was found to be 0 and the “Composite Activity - Marginal” value was 0.

As to `Cc1nnc(SCC2=C(C(=O)O)N3C(=O)[C@@H](NC(=O)Cn4cnnn4)[C@H]3SC2)s1` [CEFAZOLIN], the “Composite Activity - Active” value turned out to be 0 and the “Composite Activity - Marginal” value came to 0.

Take `CN1C(=O)CCS(=O)(=O)C1c1ccc(Cl)cc1` (stereo unspecified) [CHLORMEZANONE]: the “Composite Activity - Active” value is 0 and the “Composite Activity - Marginal” value worked out at 0.

In the case of `O=C(O)C1N=C(c2ccccc2)c2cc(Cl)ccc2NC1=O` (stereo unspecified) [CLORAZEPIC ACID], the “Composite Activity - Active” value is 0 and the “Composite Activity - Marginal” value worked out at 0.

Regarding `O=C1CN(/N=C/c2ccc(-c3ccc([N+](=O)[O-])cc3)o2)C(O)=N1` [DANTROLENE], the “Composite Activity - Active” value was 0 and the “Composite Activity - Marginal” value was found to be 0.

In the case of `CC(=O)OCC(=O)[C@@]1(OC(=O)c2ccco2)[C@H](C)C[C@H]2[C@@H]3CCC4=CC(=O)C=C[C@]4(C)[C@@]3(F)[C@@H](O)C[C@@]21C` [DEXAMETHASONE ACEFURATE], the “Composite Activity - Active” value was 0 and the “Composite Activity - Marginal” value was found to be 0.

With `CC(=O)OCC(=O)[C@@]1(O)[C@H](C)C[C@H]2[C@@H]3CCC4=CC(=O)C=C[C@]4(C)[C@@]3(F)[C@@H](O)C[C@@]21C` [DEXAMETHASONE ACETATE], the “Composite Activity - Active” value is reported as 0 and the “Composite Activity - Marginal” value is reported as 0.

As to `CCC(=O)OCC(=O)[C@@]1(OC(=O)CC)[C@H](C)C[C@H]2[C@@H]3CCC4=CC(=O)C=C[C@]4(C)[C@@]3(F)[C@@H](O)C[C@@]21C` [DEXAMETHASONE DIPROPIONATE], the “Composite Activity - Active” value turned out to be 0 and the “Composite Activity - Marginal” value turned out to be 0.

For the compound `CCCCC(=O)O[C@]1(C(=O)CO)[C@H](C)C[C@H]2[C@@H]3CCC4=CC(=O)C=C[C@]4(C)[C@@]3(F)[C@@H](O)C[C@@]21C` [DEXAMETHASONE VALARATE], the “Composite Activity - Active” value is listed as 0 and the “Composite Activity - Marginal” value is reported as 0.

`C[C@@H]1C[C@H]2[C@@H]3CCC4=CC(=O)C=C[C@]4(C)[C@@]3(F)[C@@H](O)C[C@]2(C)[C@@]1(O)C(=O)CO` [DEXAMETHASONE]: the “Composite Activity - Active” value was found to be 0 and the “Composite Activity - Marginal” value is 0.

For `CC(C)N(CCC(C(N)=O)(c1ccccc1)c1ccccn1)C(C)C` (stereo unspecified) [DISOPYRAMIDE], the “Composite Activity - Active” value came out at 0 and the “Composite Activity - Marginal” value is 0.

For the compound `COc1cccc2c1C(=O)c1c(O)c3c(c(O)c1C2=O)C[C@@](O)(C(=O)CO)C[C@@H]3O[C@H]1C[C@H](N)[C@H](O)[C@H](C)O1` [DOXORUBICIN], the “Composite Activity - Active” value came to 0 and the “Composite Activity - Marginal” value came to 0.

`CC[C@@H](CO)NCCN[C@@H](CC)CO` [ETHAMBUTOL]: the “Composite Activity - Active” value was determined as 0 and the “Composite Activity - Marginal” value is 0.

As to `CCNC(C)Cc1cccc(C(F)(F)F)c1` (stereo unspecified) [FENFLURAMINE], the “Composite Activity - Active” value is listed as 0 and the “Composite Activity - Marginal” value is listed as 0.

For the compound `O=c1[nH]c(=O)n([C@H]2C[C@H](O)[C@@H](CO)O2)cc1F` [FLOXURIDINE], the “Composite Activity - Active” value was 0 and the “Composite Activity - Marginal” value is on record as 0.

`Nc1nc(=O)[nH]cc1F` [FLUCYTOSINE]: the “Composite Activity - Active” value is given as 0 and the “Composite Activity - Marginal” value is recorded as 0.

As for `CCCCCCCCCC(=O)OCCN1CCN(CCCN2c3ccccc3Sc3ccc(C(F)(F)F)cc32)CC1` [FLUPHENAZINE DECANOATE], the “Composite Activity - Active” value was 0 and the “Composite Activity - Marginal” value stood at 0.

As to `CCCCCCC(=O)OCCN1CCN(CCCN2c3ccccc3Sc3ccc(C(F)(F)F)cc32)CC1` [FLUPHENAZINE ENANTHATE], the “Composite Activity - Active” value was 0 and the “Composite Activity - Marginal” value is listed as 0.

For the compound `OCCN1CCN(CCCN2c3ccccc3Sc3ccc(C(F)(F)F)cc32)CC1` [FLUPHENAZINE], the “Composite Activity - Active” value is 0 and the “Composite Activity - Marginal” value stood at 0.

Regarding `O=C(CCCN1CCC(O)(c2ccc(Cl)cc2)CC1)c1ccc(F)cc1` [HALOPERIDOL], the “Composite Activity - Active” value is listed as 0 and the “Composite Activity - Marginal” value amounted to 0.

With `NS(=O)(=O)c1cc2c(cc1Cl)NCNS2(=O)=O` [HYDROCHLOROTHIAZIDE], the “Composite Activity - Active” value was determined as 0 and the “Composite Activity - Marginal” value worked out at 0.

In the case of `NC(=O)NO` [HYDROXYUREA], the “Composite Activity - Active” value came out at 0 and the “Composite Activity - Marginal” value was 0.

Turning to `OCCOCCN1CCN(C(c2ccccc2)c2ccc(Cl)cc2)CC1` (stereo unspecified) [HYDROXYZINE], the “Composite Activity - Active” value worked out at 0 and the “Composite Activity - Marginal” value worked out at 0.

With `COC(=O)Nc1nc2ccc(C(=O)c3ccccc3)cc2[nH]1` [MEBENDAZOLE], the “Composite Activity - Active” value was found to be 0 and the “Composite Activity - Marginal” value is 0.

`CC(=O)O[C@]1(C(C)=O)CC[C@H]2[C@@H]3C[C@H](C)C4=CC(=O)CC[C@]4(C)[C@H]3CC[C@@]21C` [MEDROXYPROGESTERONE ACETATE]: the “Composite Activity - Active” value was determined as 0 and the “Composite Activity - Marginal” value turned out to be 0.

On to `CC(=O)O[C@]1(C(C)=O)CC[C@H]2[C@@H]3C=C(C)C4=CC(=O)CC[C@]4(C)[C@H]3CC[C@@]21C` [MEGESTROL ACETATE], for which the “Composite Activity - Active” value came out at 0 and the “Composite Activity - Marginal” value came out at 0.

`C#C[C@]1(O)CC[C@H]2[C@@H]3CCc4cc(OC)ccc4[C@H]3CC[C@@]21C` [MESTRANOL]: the “Composite Activity - Active” value is 0 and the “Composite Activity - Marginal” value stood at 0.

As for `C=CCC1(C(C)C#CCC)C(=O)N=C(O)N(C)C1=O` (stereo unspecified) [METHOHEXITAL], the “Composite Activity - Active” value is reported as 0 and the “Composite Activity - Marginal” value was determined as 0.

Staying with this data set, now noted: human, Liver.
As for `CC1=C(C(=O)O)N2C(=O)[C@@H](NC(=O)[C@H](N)c3ccccc3)[C@H]2SC1` [CEPHALEXIN ANHYDROUS], the “Composite Activity - Active” value is listed as 0 and the “Composite Activity - Marginal” value is on record as 0.

For `CN(C)CCC=C1c2ccccc2C=Cc2ccccc21` [CYCLOBENZAPRINE], the “Composite Activity - Active” value is 0 and the “Composite Activity - Marginal” value is on record as 0.

In the case of `CN1C(=O)CN=C(c2ccccc2)c2cc(Cl)ccc21` [DIAZEPAM], the “Composite Activity - Active” value is 0 and the “Composite Activity - Marginal” value is recorded as 0.

With `CCc1cc(C(N)=S)ccn1` [ETHIONAMIDE], the “Composite Activity - Active” value is reported as 0 and the “Composite Activity - Marginal” value came out at 0.

For the origin of these results see ChEMBL document CHEMBL1697781, “Assessment of the health effects of chemicals in humans: II. Construction of an adverse effects database for QSAR modeling” (Curr Drug Discov Technol, 2004).
